Reference: paper PMC12667733

Experiment: head-to-tail lactamisation of side-chain-protected linear peptides, PyBOP (2 equiv), DIPEA (3 equiv, added dropwise), overnight at rt under N2; then TFA global deprotection and prep RP-HPLC
Conditions: the molecule shown is the open-chain precursor, DMF, 1.0 mM, 25.0 °C, 2 steps

Row | Structure (SMILES) | ring closure, yield over several steps (21-membered ring) | ring closure, yield over several steps (15-membered ring) | also measured
1 | CC(C)C[C@H](NC(=O)CN)C(=O)N[C@@H](Cc1cn(C(c2ccccc2)(c2ccccc2)c2ccccc2)cn1)C(=O)N[C@@H](Cc1ccccc1)C(=O)N[C@@H](C)C(=O)N[C@@H](Cc1ccccc1)C(=O)N1CCC[C@H]1C(=O)O [H-Gly-Leu-His(Trt)-Phe-Ala-Phe-Pro-OH] | 56% | – | –
2 | CC(C)C[C@H](NC(=O)CN)C(=O)N[C@@H](COC(C)(C)C)C(=O)N[C@@H](Cc1ccccc1)C(=O)N[C@@H](C)C(=O)N[C@@H](Cc1ccccc1)C(=O)N1CCC[C@H]1C(=O)O [H-Gly-Leu-Ser(tBu)-Phe-Ala-Phe-Pro-OH] | 54% | – | –
3 | Cc1c(C)c(S(=O)(=O)NC(=N)NCCC[C@H](NC(=O)[C@H](Cc2ccc(OC(C)(C)C)cc2)NC(=O)CN)C(=O)N[C@@H](Cc2ccccc2)C(=O)N[C@@H](COC(C)(C)C)C(=O)O)c(C)c2c1OC(C)(C)C2 [H-Gly-Tyr(tBu)-Arg(Pbf)-Phe-Ser(tBu)-OH] | – | 64% | –
4 | C[C@H](N)C(=O)N[C@@H](COC(C)(C)C)C(=O)N[C@@H](Cc1ccc(OC(C)(C)C)cc1)C(=O)N[C@@H](COC(C)(C)C)C(=O)N[C@@H](COC(C)(C)C)C(=O)N[C@@H](CCCCNC(=O)OC(C)(C)C)C(=O)N1CCC[C@H]1C(=O)N[C@@H](Cc1ccccc1)C(=O)N[C@@H](COC(C)(C)C)C(=O)O | – | – | ring closure, yield over several steps (27-membered ring): 62%
5 | CC(C)[C@H](NC(=O)CN)C(=O)N[C@@H](C)C(=O)N[C@@H](Cc1cn(C(=O)OC(C)(C)C)c2ccccc12)C(=O)N[C@@H](C)C(=O)O [H-Gly-Val-Ala-Trp(Boc)-Ala-OH] | – | 48% | –
6 | Cc1c(C)c(S(=O)(=O)NC(=N)NCCC[C@H](NC(=O)CN)C(=O)N[C@H](C(=O)N[C@@H](CCCCNC(=O)OC(C)(C)C)C(=O)N[C@@H](C)C(=O)O)C(C)C)c(C)c2c1OC(C)(C)C2 [H-Gly-Arg(Pbf)-Val-Lys(Boc)-Ala-OH] | – | 63% | –
7 | CC(C)C[C@H](NC(=O)[C@@H]1CCCN1C(=O)[C@@H](NC(=O)[C@H](Cc1ccc(OC(C)(C)C)cc1)NC(=O)CN)C(C)C)C(=O)N[C@@H](Cc1cn(C(=O)OC(C)(C)C)c2ccccc12)C(=O)N1CCC[C@H]1C(=O)O [H-Gly-Tyr(tBu)-Val-Pro-Leu-Trp(Boc)-Pro-OH] | 57% | – | –
8 | CC(C)[C@H](NC(=O)CN)C(=O)N[C@@H](CCCCNC(=O)OC(C)(C)C)C(=O)N[C@@H](Cc1ccc(OC(C)(C)C)cc1)C(=O)N[C@@H](C)C(=O)O [H-Gly-Val-Lys(Boc)-Tyr(tBu)-Ala-OH] | – | 68% | –
9 | CC(C)C[C@H](NC(=O)CNC(=O)[C@H](Cc1cn(C(c2ccccc2)(c2ccccc2)c2ccccc2)cn1)NC(=O)[C@@H](NC(=O)CNC(=O)[C@@H](N)Cc1ccccc1)[C@@H](C)OC(C)(C)C)C(=O)N1CCC[C@H]1C(=O)N[C@@H](C)C(=O)N1CCC[C@H]1C(=O)O [H-Phe-Gly-Thr(tBu)-His(Trt)-Gly-Leu-Pro-Ala-Pro-OH] | – | – | ring closure, yield over several steps (27-membered ring): 57%
10 | CC(C)[C@H](NC(=O)[C@@H]1CCCN1C(=O)[C@@H](NC(=O)CN)C(C)C)C(=O)N[C@@H](Cc1cn(C(=O)OC(C)(C)C)c2ccccc12)C(=O)N[C@@H](C)C(=O)O [H-Gly-Val-Pro-Val-Trp(Boc)-Ala-OH] | – | – | ring closure, yield over several steps (18-membered ring): 51%
